Source: the supplement of paper PMC12076712

How the values were obtained:
Test in all cases: pIC50, kinobeads binding competition
UniProt P28482 = molecular target: UniProt P28482
How it was run: (§1)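 Fold changes relative to vehicle, from biological duplicates, were fitted with logistic dose-response models in the R drc package to give pIC50. These fold changes came from TMT10 LC-MS/MS quantification of digested Kinobeads-bound proteins. Compound was applied at nine concentrations (top 30 μM) either to live Jurkat cells in 1:4 steps for 60 min at 37 °C before lysis, or to Jurkat lysate or a 1:1:1:1 HEK293/K-562/HepG2/placenta lysate mix in 1:5 steps for 60 min at 4 °C.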

UniProt P78356 = molecular target: T1, UniProt P78356
T1 sequence (whole entry): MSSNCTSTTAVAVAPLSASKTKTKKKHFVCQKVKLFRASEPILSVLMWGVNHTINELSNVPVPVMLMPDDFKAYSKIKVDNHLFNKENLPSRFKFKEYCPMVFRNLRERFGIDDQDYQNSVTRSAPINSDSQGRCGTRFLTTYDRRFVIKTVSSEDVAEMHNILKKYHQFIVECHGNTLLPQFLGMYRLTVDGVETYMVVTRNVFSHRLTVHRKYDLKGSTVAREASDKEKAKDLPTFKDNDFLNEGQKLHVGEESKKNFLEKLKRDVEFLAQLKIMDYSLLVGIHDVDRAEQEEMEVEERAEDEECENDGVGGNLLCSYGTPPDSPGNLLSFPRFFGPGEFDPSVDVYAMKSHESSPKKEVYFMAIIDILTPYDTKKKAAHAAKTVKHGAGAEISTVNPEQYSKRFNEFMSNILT
How it was run: as §1

UniProt P49674 = molecular target: UniProt P49674
Sequence of UniProt P49674 (P49674 whole entry, looked up): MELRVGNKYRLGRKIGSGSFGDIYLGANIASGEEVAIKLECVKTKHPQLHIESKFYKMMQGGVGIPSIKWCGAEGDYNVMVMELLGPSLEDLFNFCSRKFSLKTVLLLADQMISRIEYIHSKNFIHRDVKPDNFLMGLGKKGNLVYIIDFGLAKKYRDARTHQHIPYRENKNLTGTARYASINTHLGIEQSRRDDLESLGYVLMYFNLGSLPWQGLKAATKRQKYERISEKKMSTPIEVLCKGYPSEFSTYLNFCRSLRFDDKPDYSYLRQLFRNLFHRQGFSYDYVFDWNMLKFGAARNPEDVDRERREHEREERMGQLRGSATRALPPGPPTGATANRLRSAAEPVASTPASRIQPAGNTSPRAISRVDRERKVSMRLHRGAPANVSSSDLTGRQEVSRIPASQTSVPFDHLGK
How it was run: as §1

UniProt O00444 = molecular target: T2, UniProt O00444
T2 sequence (whole entry): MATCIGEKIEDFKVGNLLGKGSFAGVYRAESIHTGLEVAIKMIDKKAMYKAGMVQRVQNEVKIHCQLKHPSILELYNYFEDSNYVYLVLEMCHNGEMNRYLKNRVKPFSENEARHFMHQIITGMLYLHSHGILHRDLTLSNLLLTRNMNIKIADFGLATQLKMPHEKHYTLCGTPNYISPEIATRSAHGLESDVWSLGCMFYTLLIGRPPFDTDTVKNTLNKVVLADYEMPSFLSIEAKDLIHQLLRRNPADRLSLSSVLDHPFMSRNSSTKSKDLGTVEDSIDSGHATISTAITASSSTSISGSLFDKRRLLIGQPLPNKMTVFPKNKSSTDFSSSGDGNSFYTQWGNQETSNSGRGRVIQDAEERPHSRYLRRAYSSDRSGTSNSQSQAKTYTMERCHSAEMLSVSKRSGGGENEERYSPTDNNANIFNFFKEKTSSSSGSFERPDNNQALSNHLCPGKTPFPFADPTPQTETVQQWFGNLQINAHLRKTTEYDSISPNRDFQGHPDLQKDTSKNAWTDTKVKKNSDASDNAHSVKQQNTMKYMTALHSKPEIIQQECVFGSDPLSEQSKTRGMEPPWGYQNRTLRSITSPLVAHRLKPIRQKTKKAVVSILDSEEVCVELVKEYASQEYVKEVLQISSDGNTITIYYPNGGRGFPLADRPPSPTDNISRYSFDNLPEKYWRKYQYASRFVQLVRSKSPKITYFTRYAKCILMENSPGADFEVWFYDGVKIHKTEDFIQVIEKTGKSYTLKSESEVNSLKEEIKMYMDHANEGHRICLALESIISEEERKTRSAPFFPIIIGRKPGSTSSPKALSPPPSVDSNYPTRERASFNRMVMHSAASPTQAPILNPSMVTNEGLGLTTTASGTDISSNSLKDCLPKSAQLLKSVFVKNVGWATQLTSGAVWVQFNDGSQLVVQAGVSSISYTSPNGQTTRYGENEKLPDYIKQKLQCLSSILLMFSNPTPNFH
How it was run: as §1

LATS1 = molecular target: T3, LATS1 (UniProt O95835)
T3 sequence (whole entry): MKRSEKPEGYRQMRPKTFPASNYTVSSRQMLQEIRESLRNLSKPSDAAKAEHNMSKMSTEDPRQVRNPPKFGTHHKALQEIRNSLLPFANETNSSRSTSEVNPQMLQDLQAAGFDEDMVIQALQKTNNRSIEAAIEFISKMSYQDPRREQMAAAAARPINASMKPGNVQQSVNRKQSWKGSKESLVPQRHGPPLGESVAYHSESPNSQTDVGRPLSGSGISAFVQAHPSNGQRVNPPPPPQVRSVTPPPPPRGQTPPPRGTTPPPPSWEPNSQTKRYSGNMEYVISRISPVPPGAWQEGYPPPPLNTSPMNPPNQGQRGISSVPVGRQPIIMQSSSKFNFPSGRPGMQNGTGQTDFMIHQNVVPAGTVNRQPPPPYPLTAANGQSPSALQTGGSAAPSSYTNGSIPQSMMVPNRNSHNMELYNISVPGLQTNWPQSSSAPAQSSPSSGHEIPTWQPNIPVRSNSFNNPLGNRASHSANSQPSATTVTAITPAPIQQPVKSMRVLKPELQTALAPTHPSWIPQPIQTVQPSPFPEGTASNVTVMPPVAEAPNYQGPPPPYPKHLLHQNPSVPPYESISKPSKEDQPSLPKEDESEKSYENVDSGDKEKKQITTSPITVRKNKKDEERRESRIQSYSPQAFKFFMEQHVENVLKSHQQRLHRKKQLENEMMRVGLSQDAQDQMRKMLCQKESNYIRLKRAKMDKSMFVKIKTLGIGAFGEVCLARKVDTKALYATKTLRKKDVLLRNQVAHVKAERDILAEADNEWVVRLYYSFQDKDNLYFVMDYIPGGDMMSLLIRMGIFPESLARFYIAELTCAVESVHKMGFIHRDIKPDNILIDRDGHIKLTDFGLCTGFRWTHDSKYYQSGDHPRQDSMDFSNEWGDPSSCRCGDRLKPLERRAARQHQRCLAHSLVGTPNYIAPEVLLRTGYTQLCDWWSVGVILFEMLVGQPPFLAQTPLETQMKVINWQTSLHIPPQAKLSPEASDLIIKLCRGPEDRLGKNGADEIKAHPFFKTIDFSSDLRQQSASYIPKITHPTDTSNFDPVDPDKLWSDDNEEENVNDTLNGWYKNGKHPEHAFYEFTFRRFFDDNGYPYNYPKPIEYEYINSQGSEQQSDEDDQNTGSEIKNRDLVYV
How it was run: as §1

UniProt Q07912 = molecular target: UniProt Q07912
Sequence of UniProt Q07912 (Q07912 whole entry, looked up): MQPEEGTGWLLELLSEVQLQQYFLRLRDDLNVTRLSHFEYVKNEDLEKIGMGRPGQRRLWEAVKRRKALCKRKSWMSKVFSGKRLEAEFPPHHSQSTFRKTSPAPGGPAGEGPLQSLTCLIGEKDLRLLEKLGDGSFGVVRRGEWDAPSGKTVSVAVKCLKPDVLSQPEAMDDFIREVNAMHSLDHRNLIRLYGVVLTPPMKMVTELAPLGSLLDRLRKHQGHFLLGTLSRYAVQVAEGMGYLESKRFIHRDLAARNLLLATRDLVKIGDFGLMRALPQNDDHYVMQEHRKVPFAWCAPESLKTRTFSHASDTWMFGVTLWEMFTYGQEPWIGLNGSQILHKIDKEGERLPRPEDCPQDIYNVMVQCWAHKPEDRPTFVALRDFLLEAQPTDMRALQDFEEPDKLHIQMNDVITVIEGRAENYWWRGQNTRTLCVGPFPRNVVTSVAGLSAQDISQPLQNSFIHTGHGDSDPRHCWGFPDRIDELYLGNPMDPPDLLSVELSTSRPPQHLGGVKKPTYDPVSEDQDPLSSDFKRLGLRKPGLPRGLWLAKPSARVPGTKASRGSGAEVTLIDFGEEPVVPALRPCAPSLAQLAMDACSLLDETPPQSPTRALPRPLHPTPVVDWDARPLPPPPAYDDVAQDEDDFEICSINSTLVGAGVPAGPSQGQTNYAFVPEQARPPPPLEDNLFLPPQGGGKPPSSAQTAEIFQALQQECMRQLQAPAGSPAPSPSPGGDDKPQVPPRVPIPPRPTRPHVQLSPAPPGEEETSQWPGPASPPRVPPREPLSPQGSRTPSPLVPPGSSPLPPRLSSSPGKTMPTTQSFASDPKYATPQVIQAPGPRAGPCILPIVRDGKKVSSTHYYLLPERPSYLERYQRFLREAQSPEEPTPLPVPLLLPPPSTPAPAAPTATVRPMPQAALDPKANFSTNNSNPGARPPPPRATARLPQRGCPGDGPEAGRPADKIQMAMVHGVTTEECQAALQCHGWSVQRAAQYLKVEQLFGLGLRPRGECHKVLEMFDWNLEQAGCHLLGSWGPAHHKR
How it was run: as §1

PRKAA2 = PRKAA2 (UniProt P54646); conditions: cell material: Lysate mix
Sequence of PRKAA2 (P54646 whole entry, looked up): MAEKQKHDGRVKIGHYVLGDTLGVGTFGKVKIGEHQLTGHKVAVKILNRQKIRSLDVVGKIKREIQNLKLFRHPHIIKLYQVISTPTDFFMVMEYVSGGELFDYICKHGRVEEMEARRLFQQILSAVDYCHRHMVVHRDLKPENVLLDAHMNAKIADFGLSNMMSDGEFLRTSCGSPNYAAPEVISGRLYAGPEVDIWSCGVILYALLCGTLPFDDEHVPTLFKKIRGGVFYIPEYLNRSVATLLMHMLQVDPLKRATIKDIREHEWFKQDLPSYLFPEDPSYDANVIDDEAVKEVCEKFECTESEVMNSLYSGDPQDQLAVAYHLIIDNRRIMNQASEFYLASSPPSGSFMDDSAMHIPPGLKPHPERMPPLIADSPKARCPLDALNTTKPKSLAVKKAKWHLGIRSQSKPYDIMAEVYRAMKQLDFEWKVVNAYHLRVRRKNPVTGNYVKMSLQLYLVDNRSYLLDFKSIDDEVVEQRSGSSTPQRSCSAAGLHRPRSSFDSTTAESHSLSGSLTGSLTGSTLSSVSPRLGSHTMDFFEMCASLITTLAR
How it was run: as §1

UniProt Q9HBH9 = molecular target: UniProt Q9HBH9
Sequence of UniProt Q9HBH9 (Q9HBH9 whole entry, looked up): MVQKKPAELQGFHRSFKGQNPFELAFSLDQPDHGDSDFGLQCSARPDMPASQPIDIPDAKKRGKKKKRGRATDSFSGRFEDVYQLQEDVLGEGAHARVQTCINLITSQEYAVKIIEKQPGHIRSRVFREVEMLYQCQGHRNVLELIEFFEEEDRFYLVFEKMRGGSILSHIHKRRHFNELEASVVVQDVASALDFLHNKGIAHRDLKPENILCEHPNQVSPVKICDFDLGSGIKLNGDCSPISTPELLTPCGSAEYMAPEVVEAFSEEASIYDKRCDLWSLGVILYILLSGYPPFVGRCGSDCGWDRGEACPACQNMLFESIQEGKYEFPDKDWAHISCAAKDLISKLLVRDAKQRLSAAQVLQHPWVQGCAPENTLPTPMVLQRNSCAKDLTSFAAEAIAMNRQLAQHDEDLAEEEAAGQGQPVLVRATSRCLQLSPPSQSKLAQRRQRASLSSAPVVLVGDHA
How it was run: as §1

CLK1 = CLK1 (UniProt P49759)
Sequence of CLK1 (P49759 whole entry, looked up): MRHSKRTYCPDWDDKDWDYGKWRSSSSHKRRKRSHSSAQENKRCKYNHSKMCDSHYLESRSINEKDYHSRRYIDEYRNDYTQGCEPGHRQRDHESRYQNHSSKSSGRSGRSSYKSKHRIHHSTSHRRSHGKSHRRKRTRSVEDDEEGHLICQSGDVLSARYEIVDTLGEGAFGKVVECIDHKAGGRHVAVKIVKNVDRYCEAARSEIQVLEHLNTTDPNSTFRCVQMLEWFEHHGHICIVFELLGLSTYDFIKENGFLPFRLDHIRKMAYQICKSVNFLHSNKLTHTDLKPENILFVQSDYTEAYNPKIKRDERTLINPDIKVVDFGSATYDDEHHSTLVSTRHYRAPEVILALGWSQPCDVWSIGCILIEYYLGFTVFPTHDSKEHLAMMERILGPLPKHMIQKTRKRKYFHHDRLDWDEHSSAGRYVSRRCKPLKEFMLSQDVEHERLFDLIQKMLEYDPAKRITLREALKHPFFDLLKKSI
How it was run: as §1

Sequence of UniProt P28482 (P28482 whole entry): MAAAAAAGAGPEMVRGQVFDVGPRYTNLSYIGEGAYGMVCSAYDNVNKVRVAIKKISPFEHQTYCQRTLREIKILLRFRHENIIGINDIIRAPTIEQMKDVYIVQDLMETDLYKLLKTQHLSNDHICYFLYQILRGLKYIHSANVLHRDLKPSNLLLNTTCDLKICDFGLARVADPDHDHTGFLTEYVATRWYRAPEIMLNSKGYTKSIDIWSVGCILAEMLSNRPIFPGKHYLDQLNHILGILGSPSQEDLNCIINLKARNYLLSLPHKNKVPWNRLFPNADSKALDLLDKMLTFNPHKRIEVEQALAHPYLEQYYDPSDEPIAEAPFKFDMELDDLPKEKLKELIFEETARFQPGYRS

SMILES | pIC50 (UniProt P28482; cell material: Lysate mix) | pIC50 (UniProt P78356; cell material: Lysate mix) | pIC50 (UniProt P49674; cell material: Lysate mix) | pIC50 (UniProt O00444; cell material: Lysate mix) | pIC50 (LATS1; cell material: Lysate mix) | pIC50 (UniProt Q07912; cell material: Lysate mix) | pIC50 (PRKAA2) | pIC50 (UniProt Q9HBH9; cell material: Lysate mix) | pIC50 (CLK1; cell material: Lysate mix) | pIC50 (UniProt P28482; cell material: Jurkat cells) | pIC50 (UniProt P28482; cell material: Jurkat lysate) | pIC50 (UniProt P78356; cell material: Jurkat lysate) | pIC50 (UniProt P49674; cell material: Jurkat cells) | pIC50 (UniProt P49674; cell material: Jurkat lysate) | pIC50 (UniProt O00444; cell material: Jurkat cells) | pIC50 (UniProt O00444; cell material: Jurkat lysate) | pIC50 (LATS1; cell material: Jurkat cells) | pIC50 (LATS1; cell material: Jurkat lysate) | pIC50 (UniProt Q07912; cell material: Jurkat cells) | pIC50 (UniProt Q07912; cell material: Jurkat lysate) | pIC50 (UniProt Q9HBH9; cell material: Jurkat cells) | pIC50 (UniProt Q9HBH9; cell material: Jurkat lysate) | pIC50 (CLK1; cell material: Jurkat cells) | pIC50 (CLK1; cell material: Jurkat lysate)
CCNC(=O)c1cc(Nc2cc(C)[nH]n2)nc(N2CCN(Cc3ccc(S(=O)(=O)F)cc3)CC2)n1 | < 4.52 | < 4.52 | < 4.52 | 5.97 | < 4.52 | < 4.52 | 7.35 | < 4.52 | < 4.52 | – | – | – | – | – | – | – | – | – | – | – | – | – | – | –
CCNC(=O)c1cc(Nc2cc(C3CC3)[nH]n2)nc(N2CCN(Cc3ccc(S(=O)(=O)F)cc3)CC2)n1 | < 4.52 | < 4.52 | < 4.52 | 5.81 | 5.3 | < 4.52 | 7.04 | < 4.52 | 5.44 | – | – | – | – | – | – | – | – | – | – | – | – | – | – | –
Cc1cc(Nc2cc(C(=O)NCCNC(=O)OC3CC/C=C/CCC3)nc(N3CCN(Cc4ccc(S(=O)(=O)F)cc4)CC3)n2)n[nH]1 (stereo unspecified) | < 4.52 | < 4.52 | < 4.52 | < 4.52 | < 4.52 | < 4.52 | 5.31 | < 4.52 | < 4.52 | – | – | – | – | – | – | – | – | – | – | – | – | – | – | –
C#CCNC(=O)c1cc(Nc2cc(C3CC3)[nH]n2)nc(N2CCN(Cc3ccc(S(=O)(=O)F)cc3)CC2)n1 | < 4.52 | < 4.52 | < 4.52 | 6.02 | 5.56 | < 4.52 | 7.31 | < 4.52 | 5.66 | 5.48 | < 4.52 | < 4.52 | 5.4 | < 4.52 | 5.96 | 5.44 | 6.2 | 4.7 | 5.16 | < 4.52 | 5.15 | < 4.52 | 6.11 | 5.38
C#CCNC(=O)c1cc(Nc2cc(C)[nH]n2)nc(N2CCN(Cc3ccc(S(=O)(=O)F)cc3)CC2)n1 | < 4.52 | < 4.52 | < 4.52 | 5.39 | 4.65 | < 4.52 | 6.53 | < 4.52 | < 4.52 | – | – | – | – | – | – | – | – | – | – | – | – | – | – | –
O=C(NCCNC(=O)c1cc(Nc2cc(C3CC3)[nH]n2)nc(N2CCN(Cc3ccc(S(=O)(=O)F)cc3)CC2)n1)OC1CC/C=C/CCC1 (stereo unspecified) | < 4.52 | < 4.52 | < 4.52 | < 4.52 | < 4.52 | < 4.52 | 5.5 | < 4.52 | < 4.52 | < 4.52 | < 4.52 | < 4.52 | – | < 4.52 | 5.5 | < 4.52 | 5.78 | < 4.52 | < 4.52 | < 4.52 | – | < 4.52 | – | < 4.52
